Converted amounts (≈) assume the structure as drawn.
How the values were obtained:
[1] = Solubility measurements in saline (PBS, LC/MS); format: physicochemical
Experimental: Solubility measurements. A saturated compound solution was prepared by addition of DMSO stock to phosphate buffered saline (final DMSO 2%) followed by sonication for 5 min at 25° C. and shaking at room temperature for 1 h. After centrifugation at 15,000 rpm for 1 h, the supernatant was analyzed by LC/MS with concentration determined from area under the curve, standardized against calibration data. A standard curve for each compound was obtained by plotting area under the curve from chromatograms against inhibitor concentration. The concentration range of the standard solutions was 1-15 μM (for 5) and 1-100 μM (other compounds). In all cases, standard curves prepared were linear with r>0.998.
A saturated drug solution of a compound was prepared by addition of the compound in DMSO to phosphate buffered saline (PBS), followed by sonication for 5 min at 25° C. Final concentration of DMSO was <2%. Each saturated solution was centrifuged and filtered. The saturated supernatant solution was diluted and injected into LC/MS. The concentration was determined from area under the curve using a calibration curve.

FRT cells = assay: Cytotoxicity measurements, crystal violet staining of FRT cells; format: cell-based, rat; conditions: 48 h
Experimental: Cytotoxicity measurements. FRT cells in confluent monolayers were incubated with compounds for 2 days. Cells were washed 3 times, fixed (cytofix, 30 min) and stained with crystal violet (100 μl, 0.5%, 10 min) using standard procedures. Excess crystal violet was removed by washing, and dye was extracted with Sorenson's buffer (0.1 M sodium citrate, 50% ethanol, pH 4.2). Crystal violet was quantified by measurement of absorbance at 650 nm. The percentage crystal violet staining was determined from test wells measured 8 times, compared to blanks (wells not containing cells) and vehicle-treated cells.
Cytotoxicity analysis was performed for Tetrazolo-172, Oxo-172, α-Me-172 and Pyridine-NO-172 (Compound 17) and compared with CFTRinh-172 (Table 3). […] Crystal violet staining was reduced for Tetrazolo-172 and α-Me-172 at 50 μM.

O=C1/C(=C/c2ccc(-c3nn[nH]n3)cc2)SC(=S)N1c1cccc(C(F)(F)F)c1 [Compound 6, (Z)-5-(4-(1H-tetrazol-5-yl)benzylidene)-2-thioxo-3-(3-(trifluoromethyl)phenyl)thiazolidin-4-one]
increase of solubility in saline/water relative to CFTRinh-172 [1]: 11 fold
Solubility in saline ([1]; Table 3, PBS, DMSO <2%): 189 µM (≈ 81.9 µg/mL)
% Cell viability 20 μM (FRT cells; 20 μM, crystal violet staining): 87%
Crystal violet staining at 50 μM (in words) (FRT cells; 50 μM): reduced
% Cell viability 50 μM (FRT cells; 50 μM, crystal violet staining): 73%
